The values that follow come from patent US10052306B2 (LUC THERAPEUTICS, INC., priority 2013, dated 2018).

Structures are written as SMILES. Read-outs that look alike come from different tables or passages of the source.

The target of test [1] is NR1/NR2B (Homo sapiens (Human), UniProt Q05586+Q13224). The test is described as follows: Cell assay: FDSS Ca2+ influx inhibition in HEK293 cells expressing NR1/NR2B.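 Further: Fluo-8 Ca2+ signal read on Hamamatsu FDSS 6000 after glutamate, glycine and Ca2+ challenge following 10 min compound preincubation, end/baseline fluorescence ratio compared with MK801 control.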 Conditions: Binned Activity.
NR1/NR2B (Homo sapiens (Human), UniProt Q05586+Q13224), sequence (Q13224 27-1484, other chains not shown): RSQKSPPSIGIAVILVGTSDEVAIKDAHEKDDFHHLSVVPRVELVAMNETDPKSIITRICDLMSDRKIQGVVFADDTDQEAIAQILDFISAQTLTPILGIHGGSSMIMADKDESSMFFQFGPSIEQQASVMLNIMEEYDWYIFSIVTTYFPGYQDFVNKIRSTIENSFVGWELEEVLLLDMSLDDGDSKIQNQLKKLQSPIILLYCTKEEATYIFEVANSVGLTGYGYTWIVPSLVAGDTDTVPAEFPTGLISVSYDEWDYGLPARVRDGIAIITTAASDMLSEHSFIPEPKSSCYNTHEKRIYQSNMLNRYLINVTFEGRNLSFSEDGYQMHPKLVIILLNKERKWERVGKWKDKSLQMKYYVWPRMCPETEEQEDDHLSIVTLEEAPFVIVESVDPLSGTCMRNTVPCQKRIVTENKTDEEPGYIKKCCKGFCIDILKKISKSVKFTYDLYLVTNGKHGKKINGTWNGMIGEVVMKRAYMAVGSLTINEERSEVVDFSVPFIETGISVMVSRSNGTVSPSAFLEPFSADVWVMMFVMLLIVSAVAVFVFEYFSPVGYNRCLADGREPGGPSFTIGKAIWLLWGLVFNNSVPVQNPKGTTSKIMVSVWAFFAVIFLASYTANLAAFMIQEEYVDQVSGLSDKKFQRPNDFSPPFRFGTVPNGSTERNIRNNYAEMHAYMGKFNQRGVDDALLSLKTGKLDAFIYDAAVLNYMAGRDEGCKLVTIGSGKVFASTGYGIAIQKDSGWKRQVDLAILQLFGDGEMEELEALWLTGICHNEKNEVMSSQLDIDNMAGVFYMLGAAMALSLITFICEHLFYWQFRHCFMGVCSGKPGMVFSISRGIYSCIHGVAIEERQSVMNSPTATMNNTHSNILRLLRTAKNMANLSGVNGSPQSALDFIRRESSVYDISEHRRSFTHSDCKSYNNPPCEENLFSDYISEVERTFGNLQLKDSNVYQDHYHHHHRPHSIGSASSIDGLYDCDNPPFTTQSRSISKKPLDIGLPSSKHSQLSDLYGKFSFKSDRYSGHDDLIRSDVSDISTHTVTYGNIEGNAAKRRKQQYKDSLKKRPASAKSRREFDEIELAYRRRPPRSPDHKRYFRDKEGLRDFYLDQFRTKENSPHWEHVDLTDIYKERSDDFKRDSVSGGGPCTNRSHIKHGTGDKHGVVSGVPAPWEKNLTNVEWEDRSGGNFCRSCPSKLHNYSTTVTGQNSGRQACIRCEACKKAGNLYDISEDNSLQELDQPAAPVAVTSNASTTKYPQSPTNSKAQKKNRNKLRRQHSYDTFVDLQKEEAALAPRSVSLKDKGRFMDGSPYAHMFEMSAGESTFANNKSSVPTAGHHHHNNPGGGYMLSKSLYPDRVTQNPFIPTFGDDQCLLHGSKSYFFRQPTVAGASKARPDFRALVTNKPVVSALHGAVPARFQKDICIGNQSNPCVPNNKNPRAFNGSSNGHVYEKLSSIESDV
For test [2], the target named is NR1/NR2B (Homo sapiens (Human), UniProt Q13224). Described as above. Particulars: read-out: NR2B NAM IC50.
NR1/NR2B (Homo sapiens (Human), UniProt Q13224), sequence (Q13224 27-1484, other chains not shown): as above
Setting [3] is: HEK293 cells expressing NR1/NR2B, Ca2+ influx, binned NR2B NAM IC50.
Setting [4] is: HEK293 cells expressing NR1/NR2B, Ca2+ influx.

Broadly, the IC50 is the concentration at which inhibition is half-maximal. Turning to `Oc1ccc([C@@H](O)CN2C[C@@H]3C[C@](O)(Cc4ccccc4)C[C@@H]3C2)cc1` [Example 2291, (3aR,5R,6aS)-5-benzyl-2-((R)-2-hydroxy-2-(4-hydroxyphenyl)ethyl) octahydrocyclopenta [c]pyrrol-5-ol], the IC50 at NR1/NR2B [1] (setting [3]) is 0.1 to 1 µM; at NR1/NR2B [2] (setting [4]), 0.332 µM.
`COc1cccc(NC(=O)N2C[C@H]3C[C@@H](c4ccccc4)C[C@H]3C2)c1` [Example 104, N-(3-methoxyphenyl)-5-phenyl-octahydrocyclopenta[c] pyrrole-2-carboxamide]: the half-maximal inhibitory concentration (IC50) on NR1/NR2B [1] (setting [3]) was over 10 µM; at NR1/NR2B [2] (setting [4]) it was 10 µM.
Take `O=C(CN1C[C@@H]2CN(Cc3ccccc3)C[C@@H]2C1)c1ccc(O)cn1` [Example 328, 2-(5-benzylhexahydropyrrolo [3,4-c]pyrrol-2(1H)-yl)-1-(5-hydroxypyridin-2-yl)ethanone]: the half-inhibitory concentration (IC50) is over 10 µM against NR1/NR2B [1] (setting [3]) and 10 µM on NR1/NR2B [2] (setting [4]).
The matching figures for `O=C(CN1C[C@@H]2C[C@@](O)(Cc3ccccc3)C[C@@H]2C1)c1ccc(O)cc1` [Example 130, 2-((3aR,5r,6aS)-5-benzyl-5-hydroxyhexahydrocyclo-penta[c]pyrrol-2(1H)-yl)-1-(4-hydroxyphenyl)ethanone]: under 0.1 µM and 0.0441 µM.
As for `O=C(CN1C[C@@H]2C[C@](F)(Cc3ccccc3)C[C@@H]2C1)c1ccc(O)cc1` [Example 310, 2-((3aR,5s,6aS)-5-benzyl-5-fluorohexahydrocyclo-penta[c]pyrrol-2(1H)-yl)-1-(4-hydroxyphenyl)ethanone], the half-inhibitory concentration (IC50) at NR1/NR2B [1] (setting [3]) was 0.1 to 1 µM; on NR1/NR2B [2] (setting [4]), 0.175 µM.
Take `O=C(CN1C[C@@H]2C[C@@](O)(Cc3ccccc3Cl)C[C@@H]2C1)c1ccc(O)cn1` [Example 234, 2-((3aR,5r,6aS)-5-(2-chlorobenzyl)-5-hydroxyhexahydrocyclo-penta[c]pyrrol-2(1H)-yl)-1(5-hydroxypyridin-2-yl)ethanone]: the IC50 is 1 to 10 µM against NR1/NR2B [1] (setting [3]) and 1.99 µM on NR1/NR2B [2] (setting [4]).
In the case of `O=C(Nc1ccccc1)N1C[C@@H]2C[C@@](O)(Cc3ccccc3)C[C@@H]2C1` [Example 122, (3aR,5r,6aS)-5-benzyl-5-hydroxy-N-phenylhexahydrocyclo-penta[c]pyrrole-2(1H)-carboxamide], the IC50 at NR1/NR2B [1] (setting [3]) is over 10 µM; on NR1/NR2B [2] (setting [4]), 10 µM.
`O=C(CN1C[C@@H]2C[C@@](O)(Cc3cccc(F)c3F)C[C@@H]2C1)c1ccc(O)cc1` [Example 249, 2-((3aR,5r,6aS)-5-(2,3-difluorobenzyl)-5-hydroxyhexahydrocyclo-penta[c]pyrrol-2(1H)-yl)-1-(4-hydroxyphenyl)ethanone]: the IC50 was 0.1 to 1 µM against NR1/NR2B [1] (setting [3]) and 0.11 µM at NR1/NR2B [2] (setting [4]).
As for `COc1ccc(C)cc1NC(=O)N1C[C@@H]2C[C@@](O)(c3ccccc3)C[C@@H]2C1` [Example 27, 5-hydroxy-N-(2-methoxy-5-methylphenyl)-5-phenyl-octahydrocyclopenta[c] pyrrole-2-carboxamide], the values for the IC50 against NR1/NR2B [1] and on NR1/NR2B [2] were over 10 µM and 10 µM, respectively.
On to `CC(C)(C)c1ccc([C@]2(O)C[C@H]3CN(C(=O)Nc4cccc(C(F)(F)F)c4)C[C@H]3C2)cc1` [Example 55, 5-(4-tert-butylphenyl)-5-hydroxy-N-[3-(trifluoromethyl)phenyl]-octahydrocyclopenta[c] pyrrole-2-carboxamide], for which the half-maximal inhibitory concentration (IC50) is over 10 µM against NR1/NR2B [1] (setting [3]) and 10 µM on NR1/NR2B [2] (setting [4]).
With `O=C(CN1C[C@@H]2C[C@@](F)(Cc3ccccc3)C[C@@H]2C1)c1ccc(O)cc1` [Example 312], the IC50 is under 0.1 µM at NR1/NR2B [1] (setting [3]) and 0.093 µM on NR1/NR2B [2] (setting [4]).
Turning to `Cc1ccccc1[C@]1(O)C[C@H]2CN(C(=O)Nc3ccccc3)C[C@H]2C1` [Example 30, 5-hydroxy-5-(2-methylphenyl)-N-phenyl-octahydrocyclopenta[c] pyrrole-2-carboxamide], the concentration for half-maximal inhibition (IC50) at NR1/NR2B [1] is over 10 µM; at NR1/NR2B [2], 10 µM.
Consider `O=C(CN1C[C@@H]2C[C@@](O)(Cc3ccccc3)C[C@@H]2C1)c1cccc(-c2cccnc2)c1` [Example 272, 2-((3aR,5r,6aS)-5-benzyl-5-hydroxyhexahydrocyclo-penta[c]pyrrol-2(1H)-yl)-1-(3-(pyridin-3-yl)phenyl)ethanone], for which the results for the IC50 against NR1/NR2B [1] (setting [3]) and at NR1/NR2B [2] (setting [4]) were over 10 µM and 10 µM, respectively.
Consider `CC(C)(C)c1ccc([C@]2(O)C[C@H]3CN(C(=O)Nc4ccc(Cl)c(C(F)(F)F)c4)C[C@H]3C2)cc1` [Example 53], for which the 50% inhibitory concentration (IC50) was over 10 µM against NR1/NR2B [1] (setting [3]) and 10 µM on NR1/NR2B [2] (setting [4]).
Take `O=C(CN1C[C@@H]2C[C@@](O)(Cc3ccc(C(F)(F)F)cc3)C[C@@H]2C1)c1ccc(O)cn1` [Example 216, 2-[(3aR,5R,6aS)-5-hydroxy-5-{[4-(trifluoromethyl)phenyl]methyl}-octahydrocyclopenta[c]pyrrol-2-yl]-1-(5-hydroxypyridin-2-yl)ethan-1-one]: the results for the 50% inhibitory concentration (IC50) against NR1/NR2B [1] (setting [3]) and at NR1/NR2B [2] (setting [4]) were 0.1 to 1 µM and 0.803 µM, respectively.
As to `O=C(CN1C[C@@H]2C[C@@](O)(Cc3c(F)cccc3F)C[C@@H]2C1)c1ccc(O)cc1` [Example 241, 2-[(3aR,5R,6aS)-5-[(2,6-difluorophenyl)methyl]-5-hydroxy-octahydrocyclopenta[c]pyrrol-2-yl]-1-(4-hydroxyphenyl)ethan-1-one], the IC50 against NR1/NR2B [1] (setting [3]) is 0.1 to 1 µM; at NR1/NR2B [2] (setting [4]) it was 0.118 µM.
The matching figures for `Cc1ccccc1-c1cccc(C(=O)CN2C[C@@H]3C[C@@](O)(Cc4ccccc4)C[C@@H]3C2)c1` [Example 278, 2-((3aR,5r,6aS)-5-benzyl-5-hydroxyhexahydrocyclo-penta[c]pyrrol-2(1H)-yl)-1-(2′-methyl-[1,1′-biphenyl]-3-yl)ethanone]: over 10 µM and 10 µM.
On to `O=C(CN1C[C@@H]2C[C@@](O)(Cc3ccccc3)C[C@@H]2C1)c1cccc(-c2ccc(F)cc2)c1` [Example 274, 2-((3aR,5r,6aS)-5-benzyl-5-hydroxyhexahydrocyclo-penta[c]pyrrol-2(1H)-yl)-1-(4′-fluoro-[1,1′-biphenyl]-3-yl)ethanone], for which the IC50 was over 10 µM against NR1/NR2B [1] (setting [3]) and 10 µM on NR1/NR2B [2] (setting [4]).
As to `O=C(CN1C[C@@H]2C[C@@](O)(Cc3ccccc3)C[C@@H]2C1)c1ccc(Cl)nc1` [Example 155, 2-((3aR,5r,6aS)-5-benzyl-5-hydroxyhexahydrocyclo-penta[c]pyrrol-2(1H)-yl)-1-(6-chloropyridin-3-yl)ethanone], the IC50 against NR1/NR2B [1] (setting [3]) was over 10 µM; at NR1/NR2B [2] (setting [4]), 10 µM.
On to `C[C@@H](NC(=O)N1C[C@H]2C[C@@H](c3ccccc3)C[C@H]2C1)c1ccc(Cl)cc1` [Example 113, N-[(1R)-1-(4-chlorophenyl)ethyl]-5-phenyl-octahydrocyclopenta[c] pyrrole-2-carboxamide], for which the IC50 against NR1/NR2B [1] (setting [3]) is over 10 µM; at NR1/NR2B [2] (setting [4]) it was 10 µM.
Turning to `O=C(CN1C[C@@H]2C[C@@](O)(Cc3ccccc3)C[C@@H]2C1)c1ccc(O)c(F)n1` [Example 190, 2-((3aR,5r,6aS)-5-benzyl-5-hydroxyhexahydrocyclo-penta[c]pyrrol-2(1H)-yl)-1-(6-fluoro-5-hydroxypyridin-2-yl)ethanone], the IC50 against NR1/NR2B [1] (setting [3]) is over 10 µM; at NR1/NR2B [2] (setting [4]), 10 µM.
With `O=C(CN1C[C@@H]2C[C@@](O)(Cc3ccccc3)C[C@@H]2C1)c1ccc(O)c(F)c1` [Example 151, 2-((3aR,5r,6aS)-5-benzyl-5-hydroxyhexahydrocyclo-penta[c]pyrrol-2(1H)-yl)-1-(3-fluoro-4-hydroxyphenyl)ethanone], the IC50 against NR1/NR2B [1] (setting [3]) is 0.1 to 1 µM; at NR1/NR2B [2] (setting [4]), 0.372 µM.
On the same counts, the results for `Cc1cccc(N2C[C@@H]3C[C@@](O)(c4ccccc4)C[C@@H]3C2)n1` [Example 85, 2-(6-methylpyridin-2-yl)-5-phenyl-octahydrocyclopenta[c] pyrrol-5-ol] are over 10 µM and 10 µM.
Consider `Cc1ccc(NC(=O)N2C[C@@H]3C[C@@](O)(Cc4ccccc4)C[C@@H]3C2)c(C)c1` [Example 121, (3aR,5r,6aS)-5-benzyl-N-(2,4-dimethylphenyl)-5-hydroxyhexahydrocyclo-penta[c]pyrrole-2(1H)-carboxamide], for which the half-inhibitory concentration (IC50) was over 10 µM on NR1/NR2B [1] (setting [3]) and 10 µM at NR1/NR2B [2] (setting [4]).
As for `O=C(Nc1cccc(Cl)c1)N1C[C@@H]2C[C@@](O)(Cc3ccccc3)C[C@@H]2C1` [Example 118, (3aR,5r,6aS)-5-benzyl-N-(3-chlorophenyl)-5-hydroxyhexahydrocyclo-penta[c]pyrrole-2(1H)-carboxamide], the values for the half-maximal inhibitory concentration (IC50) against NR1/NR2B [1] (setting [3]) and on NR1/NR2B [2] (setting [4]) were over 10 µM and 10 µM, respectively.
For `Cc1ccccc1-c1ccc(C(=O)CN2C[C@@H]3C[C@@](O)(Cc4ccccc4)C[C@@H]3C2)cc1` [Example 260, 2-((3aR,5r,6aS)-5-benzyl-5-hydroxyhexahydrocyclo-penta[c]pyrrol-2(1H)-yl)-1-(2′-methyl-[1,1′-biphenyl]-4-yl)ethanone], the half-inhibitory concentration (IC50) is over 10 µM on NR1/NR2B [1] (setting [3]) and 10 µM at NR1/NR2B [2] (setting [4]).
`O=C(CN1C[C@@H]2CN(Cc3ccccc3)C[C@@H]2C1)c1ccc(O)c(F)c1` [Example 340, 2-(5-benzylhexahydropyrrolo [3,4-c]pyrrol-2(1H)-yl)-1-(3-fluoro-4-hydroxyphenyl)ethanone]: the IC50 at NR1/NR2B [1] (setting [3]) is over 10 µM; at NR1/NR2B [2] (setting [4]), 10 µM.
On to `COc1cccc(NC(=O)N2C[C@@H]3C[C@@](O)(c4cccc(OC)c4)C[C@@H]3C2)c1` [Example 18, 5-hydroxy-N,5-bis(3-methoxyphenyl)-octahydrocyclopenta[c] pyrrole-2-carboxamide], for which the figures for the IC50 at NR1/NR2B [1] (setting [3]) and on NR1/NR2B [2] (setting [4]) were over 10 µM and 10 µM, respectively.
